Experimental data: US20250255792A1, “Methods of Using a Small Molecule Chemical Compound to Reduce the Appearance of Rhytids and Wrinkles” (BirchBioMed Inc., priority 2022, published 2025)
Entries after “also recorded” stand apart in the source; their conditions may differ.

Tests used:
[1] = system: rhytids and wrinkles on the face; test: Topical use of 0.5% kynurenic acid cream on facial rhytids and wrinkles (self-reported, visual inspection); format: in vivo, human; details: person, approx. 3 mg per application
Description: (§1) Initial dermatological effects can be followed by visual inspection of the site.
as §1

[2] = system: collagen 1; details: dermal fibroblasts; cited from earlier work
[3] = system: MMP-1; details: dermal fibroblasts; cited from earlier work
[4] = system: fibronectin; details: dermal fibroblasts; cited from earlier work
[5] = system: MMP-3; details: dermal fibroblasts; cited from earlier work
[6] = system: UVB-induced wrinkle formation; details: animal model (Kim, 2022); cited from earlier work
[7] = molecular target: T1, aryl hydrocarbon receptor (AhR) (Homo sapiens, UniProt P35869); details: cited from earlier work
T1 sequence (P35869 11-848): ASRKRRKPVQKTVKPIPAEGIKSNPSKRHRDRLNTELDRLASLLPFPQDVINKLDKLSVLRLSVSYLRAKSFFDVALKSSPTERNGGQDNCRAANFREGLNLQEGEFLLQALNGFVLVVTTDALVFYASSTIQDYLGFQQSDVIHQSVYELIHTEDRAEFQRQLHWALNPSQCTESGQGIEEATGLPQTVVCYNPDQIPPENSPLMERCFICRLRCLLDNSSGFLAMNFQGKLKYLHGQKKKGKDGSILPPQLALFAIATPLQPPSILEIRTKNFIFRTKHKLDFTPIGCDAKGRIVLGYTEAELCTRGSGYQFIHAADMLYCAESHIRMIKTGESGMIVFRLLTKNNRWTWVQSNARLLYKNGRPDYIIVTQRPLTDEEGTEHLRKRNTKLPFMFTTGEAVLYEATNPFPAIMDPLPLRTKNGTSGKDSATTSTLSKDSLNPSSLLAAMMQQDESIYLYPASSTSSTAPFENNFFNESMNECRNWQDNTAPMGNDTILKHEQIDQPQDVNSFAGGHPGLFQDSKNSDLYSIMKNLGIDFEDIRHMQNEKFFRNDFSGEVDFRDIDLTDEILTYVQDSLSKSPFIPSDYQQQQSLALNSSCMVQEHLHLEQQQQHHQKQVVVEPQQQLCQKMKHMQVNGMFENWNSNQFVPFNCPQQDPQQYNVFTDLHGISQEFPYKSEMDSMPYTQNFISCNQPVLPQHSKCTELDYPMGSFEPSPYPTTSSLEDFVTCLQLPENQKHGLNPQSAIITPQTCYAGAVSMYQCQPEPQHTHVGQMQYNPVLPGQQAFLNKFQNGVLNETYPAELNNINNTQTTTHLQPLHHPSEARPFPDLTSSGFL

[8] = system: rabbit ear hypertrophic scarring model; details: topical application to skin tissue; cited from earlier work

Compound | visibility of rhytids and wrinkles (user-reported) ([1]; topical cream 0.5% kynurenic acid by weight once a day, approx. 80 micrograms per square cm, after a 2-month period) | appearance and visibility of rhytids and wrinkles (subject-reported) ([1]; topical cream 0.5% kynurenic acid by weight twice daily, approx. 60 micrograms per square cm, approx. two-month period) | collagen 1 expression [2] | MMP-1 expression [3] | fibronectin expression [4] | MMP-3 expression [5] | UVB-induced wrinkle formation [6] | AhR agonist / antagonist activity [7] | MMP-1 relative to controls [8] | collagen relative to controls [8]
O=C(O)c1cc(=O)c2ccccc2[nH]1 [kynurenic acid] | less visible and less noticeable | perceptible and noticeable reduction | downregulate; also recorded: suppress collagen production | increase expression; also recorded: increase MMP production; also recorded: upregulate | downregulate | increase expression; also recorded: upregulate |  |  |  | 
vitamin B12 |  |  |  |  |  |  | helped reduce; also recorded: ameliorated | AhR antagonists |  | 
Nc1ccccc1C(=O)CC(N)C(=O)O (racemic) [kynurenine] |  |  | suppress collagen production | increase MMP production |  |  |  | AhR agonists | increased | decreased
Nc1nc2ncc(CNc3ccc(C(=O)N[C@@H](CCC(=O)O)C(=O)O)cc3)nc2c(=O)[nH]1 [folic acid] |  |  |  |  |  |  | helped reduce; also recorded: ameliorated | AhR antagonists |  | 
